The subject of the assay is Plasmodium berghei. Put plainly: Luciferase/luciferin-expressing antifolate-resistant parasites were used to infect a culture of HepG2 cells that were pre-incubated with compounds. Infected hepatocytes emit light due to the luciferase reaction. Assay results are presented as the percent inhibition of light emission compared to control. […]. It is filed as functional. The settings on record: sporozoite; for IC90: read-out: LUCIFERASE INFECTION ASSAY - IC90.

The mark [1] stands for this setting: read-out: LUCIFERASE INFECTION ASSAY - IC50.

What is called IC50 is the concentration needed to halve the response being measured. By IC90 is commonly meant the point of the concentration-response curve where the effect stands at 90%. Consider `O=C(CSc1ncnc2sc(-c3ccccc3)cc12)NCc1ccc(F)cc1`, for which the IC90 was above 10 µM. The IC50 (HEPG2TOX_HILL_SLOPE 9.03, HEPG2TOX_R_SQUARED 0.325, PBLUC_HILL_SLOPE 19.9, PBLUC_R_SQUARED 0.0271, read-out: LUCIFERASE INFECTION ASSAY - IC50) was found to be 9.7 µM.
On to `O=C1C(=O)N(Cc2cccc(Cl)c2)c2c1cccc2C(F)(F)F`, for which the IC90 came out at 6.09 µM. In addition, the IC50 (HEPG2TOX_HILL_SLOPE 13.2, HEPG2TOX_R_SQUARED 0.969, PBLUC_HILL_SLOPE 2.5, PBLUC_R_SQUARED 0.616, read-out: LUCIFERASE INFECTION ASSAY - IC50) amounted to 2.53 µM.
On to `Cc1cc(C)n(-c2nc(C)c(Br)c(NC(C)c3ccccc3)n2)n1` (configuration not stated), for which the IC90 is above 8.54 µM. The IC50 (PBLUC_HILL_SLOPE 5.33, PBLUC_R_SQUARED 0.256, read-out: LUCIFERASE INFECTION ASSAY - IC50) worked out at 5.95 µM.
With `CC(=O)Nc1cccc(-c2cn3c(-c4cccs4)cnc3cn2)c1`, the IC90 is above 9.87 µM. Also, the IC50 (HEPG2TOX_HILL_SLOPE 3.98, HEPG2TOX_R_SQUARED 0.532, PBLUC_HILL_SLOPE 3.16, PBLUC_R_SQUARED 0.221, read-out: LUCIFERASE INFECTION ASSAY - IC50) amounted to 5.11 µM.
With `CC(C)c1ccccc1N(C(=O)C1CCC1)c1nc2ccccc2s1`, the IC90 is above 10 µM. Further, the IC50 under setting [1] is above 10 µM.
Consider `CNc1nnc(Sc2nc(CN3CCCCC3)nc3scc(-c4ccccc4)c23)s1`, for which the IC90 was 3.67 µM. The IC50 (HEPG2TOX_HILL_SLOPE 0.991, HEPG2TOX_R_SQUARED 0.829, PBLUC_HILL_SLOPE 15.5, PBLUC_R_SQUARED 0.389, read-out: LUCIFERASE INFECTION ASSAY - IC50) came out at 3.19 µM.
In the case of `Cc1nc2ccccc2c(=O)n1-c1ccc(C(=O)NCCCc2ccccc2)cc1`, the IC90 is above 10 µM. Besides, under setting [1], the IC50 is above 10 µM.
For `CC(C)(C)c1ccc(C(=O)NC(=S)Nc2nc3c(s2)CCCC3)cc1`, the IC90 worked out at 8.77 µM. Moreover, the IC50 (PBLUC_HILL_SLOPE 2.3, PBLUC_R_SQUARED 0.829, read-out: LUCIFERASE INFECTION ASSAY - IC50) was 3.37 µM.
For the compound `NC(=O)c1ccc(C(F)(F)F)n(CC(=O)c2ccc3c(c2)OCCO3)c1=O`, the IC90 was above 10 µM. Further, the IC50 under setting [1] is above 10 µM.
For `Fc1ccc(-c2cnc3cnc(-c4ccccc4Cl)cn23)cc1Cl`, the IC90 was above 9.21 µM. Moreover, the IC50 (PBLUC_HILL_SLOPE 3.59, PBLUC_R_SQUARED 0.419, read-out: LUCIFERASE INFECTION ASSAY - IC50) was found to be 8.08 µM.
On to `C=CCN(c1ccccc1)S(=O)(=O)c1ccc(Cl)c(C(=O)Nc2ccc(N(c3ccccc3)C(C)C)cc2)c1`, for which the IC90 was 8.36 µM. In addition, the concentration for half-maximal inhibition (IC50) (FFLUC_HILL_SLOPE 2.09, FFLUC_R_SQUARED 0.761, HEPG2TOX_HILL_SLOPE 2.29, HEPG2TOX_R_SQUARED 0.839, PBLUC_HILL_SLOPE 16.1, PBLUC_R_SQUARED 0.248, read-out: LUCIFERASE INFECTION ASSAY - IC50) was 7.29 µM.
Regarding `CC(OC(=O)c1cc2ccccc2[nH]1)C(=O)Nc1cccc(C#N)c1` (configuration not stated), the IC90 was above 10 µM. Further, the IC50 (HEPG2TOX_HILL_SLOPE 7.96, HEPG2TOX_R_SQUARED 0.0358, PBLUC_HILL_SLOPE 3.96, PBLUC_R_SQUARED 0.0932, read-out: LUCIFERASE INFECTION ASSAY - IC50) was found to be 8.49 µM.
As to `O=c1c2ccccc2nc2c3ccccc3c(NCCCN3CCOCC3)nn12`, the IC90 is above 10 µM. Moreover, the IC50 under setting [1] amounted to 9.05 µM.
Regarding `CNc1ncnc(NNC(=O)Nc2ccccc2)c1[N+](=O)[O-]`, the IC90 is above 10.9 µM. In addition, the IC50 (HEPG2TOX_HILL_SLOPE 0.255, HEPG2TOX_R_SQUARED 0.589, PBLUC_HILL_SLOPE 1.34, PBLUC_R_SQUARED 0.392, read-out: LUCIFERASE INFECTION ASSAY - IC50) worked out at 6.01 µM.
Regarding `O=C(Nc1nc2ccccc2[nH]1)c1cc2ccccc2cc1O`, the IC90 was above 10 µM. Moreover, where the note is “PBLUC_HILL_SLOPE 1.13, 0.699, PBLUC_R_SQUARED 0.533, 0.940, read-out: LUCIFERASE INFECTION ASSAY - IC50”, the IC50 turned out to be 1.94 µM.
For `Cc1ccc2nc(NC(=O)c3cc(F)ccc3F)c(C(=O)NC3CCCC3)n2c1`, the IC90 came to 3 µM. The IC50 (HEPG2TOX_HILL_SLOPE 2.24, HEPG2TOX_R_SQUARED 0.919, PBLUC_HILL_SLOPE 5.13, PBLUC_R_SQUARED 0.447, read-out: LUCIFERASE INFECTION ASSAY - IC50) was 1.96 µM.
Take `COc1ccc(-c2cc(NS(=O)(=O)c3cccc(F)c3)n(-c3ccc(Cl)c(Cl)c3)n2)cc1`: the IC90 was above 6.7 µM. Further, the IC50 (HEPG2TOX_HILL_SLOPE 1.65, HEPG2TOX_R_SQUARED 0.946, PBLUC_HILL_SLOPE 2.05, PBLUC_R_SQUARED 0.116, read-out: LUCIFERASE INFECTION ASSAY - IC50) came out at 2.95 µM.
`Cc1c(CN2CCN(c3ccccn3)CC2)noc1-c1ccc(F)cc1`: the IC90 came out at 3.45 µM. Besides, the concentration for half-maximal inhibition (IC50) (PBLUC_HILL_SLOPE 83.7, PBLUC_R_SQUARED 0.475, read-out: LUCIFERASE INFECTION ASSAY - IC50) was determined as 3.36 µM.
With `O=C(OCC(=O)C12CC3CC(CC(C3)C1)C2)c1cc2ccccc2cc1O`, the 90% effect concentration (IC90) is above 10 µM. Moreover, the IC50 under setting [1] was above 10 µM.
In the case of `CC(=O)Nc1cccc(-c2cn3c(-c4ccc(CO)cc4)cnc3cn2)c1`, the IC90 was above 9.21 µM. Also, for the setting “PBLUC_HILL_SLOPE 4.55, PBLUC_R_SQUARED 0.47, read-out: LUCIFERASE INFECTION ASSAY - IC50”, the 50% inhibitory concentration (IC50) was 6.15 µM.
`O=c1cc(-c2ccccc2)[nH]c2cc(-c3cccs3)nn12`: the IC90 is above 11.2 µM. Besides, the IC50 under setting [1] turned out to be 8.64 µM.
Take `CCc1ccccc1N(CC(=O)NCC(C)C)S(=O)(=O)c1ccc(C)cc1`: the IC90 is above 8.49 µM. The IC50 under setting [1] is above 8.49 µM.
For the compound `Cc1ccc(Nc2nc(COC(=O)c3ccccc3Sc3ccc(C(F)(F)F)cc3[N+](=O)[O-])cs2)cc1`, the IC90 is above 10 µM. Besides, the IC50 under setting [1] was above 10 µM.
As for `Cc1ccc(Sc2ccc(NC(=O)C3CCN(C(=O)c4ccoc4)CC3)cc2)c(C)c1`, the IC90 came out at 9.64 µM. In addition, the IC50 (HEPG2TOX_HILL_SLOPE 3.01, HEPG2TOX_R_SQUARED 0.581, PBLUC_HILL_SLOPE 14.8, 16.7, PBLUC_R_SQUARED 0.181, 0.0620, read-out: LUCIFERASE INFECTION ASSAY - IC50) amounted to 9.11 µM.
`Cc1ccc(Oc2c(C)nc(-c3ccccc3)nc2O)cc1`: the IC90 was 1.76 µM. In addition, the concentration for half-maximal inhibition (IC50) (PBLUC_HILL_SLOPE 1.81, PBLUC_R_SQUARED 0.898, read-out: LUCIFERASE INFECTION ASSAY - IC50) turned out to be 0.524 µM.
Regarding `CCN1/C(=C\C(=O)c2ccccc2Oc2ccccc2)C(C)(C)c2c1ccc1ccccc21`, the IC90 was 8.43 µM. For the same compound, the half-maximal inhibitory concentration (IC50) (HEPG2TOX_HILL_SLOPE 8.78, HEPG2TOX_R_SQUARED 0.227, PBLUC_HILL_SLOPE 3.21, PBLUC_R_SQUARED 0.612, read-out: LUCIFERASE INFECTION ASSAY - IC50) was determined as 4.25 µM.
As for `Cc1cc(NNC(=O)Nc2ccc(Cl)cc2)nc2c1c(C)nn2C`, the IC90 was above 9.57 µM. In addition, the concentration for half-maximal inhibition (IC50) (HEPG2TOX_HILL_SLOPE 1.06, HEPG2TOX_R_SQUARED 0.939, PBLUC_HILL_SLOPE 2, PBLUC_R_SQUARED 0.223, read-out: LUCIFERASE INFECTION ASSAY - IC50) is 4.05 µM.
`COc1cc(NC(=O)N2Cc3cnc(Nc4ccc(Oc5ccccc5)cc4)nc3C2)cc(OC)c1OC`: the IC90 was above 6.43 µM. Besides, for the setting “PBLUC_HILL_SLOPE 5.21, PBLUC_R_SQUARED 0.0507, read-out: LUCIFERASE INFECTION ASSAY - IC50”, the IC50 amounted to 5.26 µM.
With `CN(C(=O)CCc1cc(C(C)(C)C)c(O)c(C(C)(C)C)c1)C1CCS(=O)(=O)C1` (configuration not stated), the IC90 was above 10 µM. Moreover, under setting [1], the IC50 was above 10 µM.
Consider `Cc1ccc(S(=O)(=O)N(C)Cc2ccc(-c3nnc4n3-c3ccccc3SC4)cc2)cc1`, for which the IC90 is above 10 µM. Moreover, the IC50 under setting [1] was determined as 3.08 µM.
In the case of `O=c1c(Cl)c(Cl)cnn1-c1ccccc1`, the IC90 was above 13.7 µM. Also, under “HEPG2TOX_HILL_SLOPE 16.5, HEPG2TOX_R_SQUARED 0.386, read-out: LUCIFERASE INFECTION ASSAY - IC50”, the IC50 is above 13.7 µM.
On to `COC(=O)c1c(NC(=O)c2ccco2)c2cc(NC(C)Cc3ccccc3OC)cnc2n1C` (configuration not stated), for which the IC90 is above 7.14 µM. In addition, the IC50 (HEPG2TOX_HILL_SLOPE 9.88, HEPG2TOX_R_SQUARED 0.405, PBLUC_HILL_SLOPE 3.37, PBLUC_R_SQUARED 0.677, read-out: LUCIFERASE INFECTION ASSAY - IC50) is 4.39 µM.
With `Cc1c(C)n(CCCO)c2ncn3nc(-c4ccccc4O)nc3c12`, the IC90 came out at 0.862 µM. Also, the IC50 (FFLUC_HILL_SLOPE 0.508, FFLUC_R_SQUARED 0.752, HEPG2TOX_HILL_SLOPE 10.5, HEPG2TOX_R_SQUARED 0.849, PBLUC_HILL_SLOPE 1, PBLUC_R_SQUARED 0.894, read-out: LUCIFERASE INFECTION ASSAY - IC50) is 0.0964 µM.
As to `Fc1ccc(Nc2nccc3nc(-c4ccccc4Cl)[nH]c23)cc1Cl`, the IC90 is above 10 µM. For the setting “HEPG2TOX_HILL_SLOPE 6.23, HEPG2TOX_R_SQUARED 0.841, PBLUC_HILL_SLOPE 1.89, PBLUC_R_SQUARED 0.243, read-out: LUCIFERASE INFECTION ASSAY - IC50”, the IC50 was 5.64 µM.
In the case of `COc1ccc([N+](=O)[O-])cc1NC(=O)COC(=O)CSCc1c(C)noc1C`, the IC90 was above 10 µM. Further, the half-maximal inhibitory concentration (IC50) under setting [1] is above 10 µM.
Turning to `O=C1NC2(CCCc3ccccc32)C(=O)N1Cc1cc2ccccc2nc1Cl` (configuration not stated), the IC90 was 9.89 µM. For the setting “FFLUC_HILL_SLOPE 2.55, FFLUC_R_SQUARED 0.444, HEPG2TOX_HILL_SLOPE 2.36, HEPG2TOX_R_SQUARED 0.953, PBLUC_HILL_SLOPE 3.3, PBLUC_R_SQUARED 0.364, read-out: LUCIFERASE INFECTION ASSAY - IC50”, the IC50 is 5.08 µM.

The record behind these values is ChEMBL document CHEMBL4483862, “Open-source discovery of chemical leads for next-generation chemoprotective antimalarials” (2018).
